From patent US20240398822A1, “METHODS AND COMPOSITIONS FOR TREATING AND MANAGING ALZHEIMER'S DISEASE” (Pharmatrophix, Inc., priority 2021, published 2024)
“Also recorded” adds a separate entry of the source.

Tests used:
[1] = Drug substance stability on storage and under accelerated/ICH stress conditions; type: physicochemical
Experimental: Preparation of the clinical dosage form consists of a dry fill of the drug substance into gelatin capsules with no excipients. For the Phase II study, capsules with the salt of Formula (II)(200 mg or 400 mg, free base weight) are machine-filled and packaged in blister strips with aluminum foil backing, which are stored in cardboard boxes. Matching placebo capsules are also available in the same packaging.

[2] = Stability study of capsules filled with 200 mg in blister strips; type: physicochemical; conditions: 200 mg (free base weight) capsules in PVC-PE-PVdC/Alu, ambient 15-25° C./20-60% RH
[3] = tested on: patients with mild to moderate Alzheimer's disease; assay: Phase IIa safety and tolerability (adverse events, vital signs, ECG, MRI, laboratory); type: in vivo, human; conditions: for subjects who discontinued the phase 2a trial due to AEs or SAEs: of 16 subjects in total; for course of the increase in eosinophil level: also where treatment was continued; for overall safety and tolerability: phase IIa
From the text: Safety monitoring included the full extent of phase 2 clinical and laboratory testing.
For all safety evaluations, only an overall ‘Safety’ population is described. This includes all patients who received at least one dose of medication and consider all patients according to the treatment they actually receive. Additionally, a PK population will be described for only patients receiving active study IMP.

[4] = tested on: p-tau; assay: Phase IIa CSF p-tau; type: in vivo, human; conditions: combined drug group
From the text: CSF samples were obtained at screening Visit and final Visit via lumbar puncture to determine levels of tau, p-tau, Aβ40, Aβ42 and AChE activity as an initial set of CSF biomarkers. Aliquots of CSF were made available for emerging CSF biomarker methods such as measurement of additional biomarkers including neurofilaments light chain, neurogranin, SNAP-25, synaptotagmin, YKL-40, TREM2, tau oligomers and for measurement of drug level in selected patients based on the time period between last dose of drug and CSF sampling (FIG. 25 and FIG. 58).
Baseline CSF samples are obtained prior to administration via lumbar puncture. These samples are used to determine levels of tau, p-tau, Aβ40, Aβ42, AChE, neurofilament light chain, SNAP-25, synaptotagmin-1, neurogranin, sTREM, and YKL-40. Aliquots of CSF are also made available for emerging CSF biomarker methods such as measurement of tau oligomers and for measurement of drug level in selected patients based on time period between last dose of the salt of Formula (II) and CSF sampling. […] Many of these biomarkers can also be measured in blood or plasma. The change in values over the time period from pre-treatment to post-treatment are of particular importance. […]

[5] = Estimating human brain exposure to drug; type: in vivo; conditions: oral dosing at 200 mg bid and 400 mg bid
Experimental: Key inclusion criteria for the 2a trial include a diagnosis of mild-moderate AD by McKhann criteria and a CSF measure of Ab 42/40 ratio under 0.089 OR a Ab 42 level <550 ng/L (FIG. 28). These criteria are discussed in Schindler et al. 2018.

[6] = 200 mg bid (N = 78), 26 weeks, safety population
[7] = 200 mg bid (N = 78), 26 weeks, safety population, listed as LM11A
[8] = 200 mg bid (N = 78), 26 weeks, safety population, listed as LM11A-31
[9] = 400 mg bid (N = 83), 26 weeks, safety population
[10] = 400 mg bid (N = 83), 26 weeks, safety population, listed as LM11A
[11] = 400 mg bid (N = 83), 26 weeks, safety population, listed as LM11A-31

Compound: CC[C@H](C)[C@H](N)C(=O)NCCN1CCOCC1 [LM11A-31-BHS, Tris[(2S,3S)-2-amino-3-methyl-N-(2-morpholinoethyl)pentanamide] tetra(monohydrogensulfate), monosulfate]
- impurities following storage at ICH stress conditions ([1]; GMP lots): no impurities above the LOD
- changes related to assay or impurities ([1]; Phase I drug substance lot, six months accelerated conditions, or 48 months at 25° C./60% RH): no significant changes
- stability under accelerated temperature and humidity conditions ([1]; drug substance): very good stability
- changes in the drug substance on storage ([1]; through 18 months at −20° C., 5° C., 25° C./60% RH or 40° C./75% RH, other than moisture content): no significant changes
- drug stability in capsules [2]: good drug stability
- patients discontinued because of AEs ([3]; 200 mg bd, safety population): 2 patients
- patients discontinued because of serious AE ([3]; 200 mg bd, safety population): 0 patients
- AEs Leading To Discontinuation of Study IMP, % of patients [3, 6]: 6.4%
- AEs Leading To Discontinuation of Study IMP, freq (events) [3, 6]: 5
- AEs Leading To Discontinuation of Study IMP, n (patients) [3, 6]: 5
- Adverse events, Drug Relationship: Not Related, % of patients [3, 6]: 52.6%
- Adverse events, Drug Relationship: Not Related, freq (events) [3, 6]: 85
- Adverse events, Drug Relationship: Not Related, n (patients) [3, 6]: 41
- Adverse events, Drug Relationship: Related, freq (events) [3, 6]: 15
- Adverse events, Drug Relationship: Related, n (patients) [3, 6]: 12
- Adverse events, Intensity: Mild, freq (events) [3, 6]: 86
- Adverse events, Intensity: Mild, n (patients) [3, 6]: 40
- Adverse events, Intensity: Moderate, freq (events) [3, 6]: 12
- Adverse events, Intensity: Moderate, n (patients) [3, 6]: 11
- Adverse events, Intensity: Severe, freq (events) [3, 6]: 2
- Adverse events, Intensity: Severe, n (patients) [3, 6]: 2
- All Adverse Events, % of patients [3, 6]: 60.3%
- All Adverse Events, freq (events) [3, 6]: 109
- All Adverse Events, n (patients) [3, 6]: 47
- Serious AEs, % of patients [3, 6]: 2.6%
- Serious AEs, freq (events) [3, 6]: 2
- Serious AEs, n (patients) [3, 6]: 2
- Treatment Emergent Adverse Events (TEAEs), % of patients [3, 6]: 59.0%
- Treatment Emergent Adverse Events (TEAEs), freq (events) [3, 6]: 100
- Treatment Emergent Adverse Events (TEAEs), n (patients) [3, 6]: 46
- Adverse events, Intensity: Severe, % of patients ([3]; 200 mg bid (N = 78), 26 weeks, safety population, listed as LM1 1A-31): 6%
- Adverse events, Drug Relationship: Related, % of patients [3, 7]: 15.4%
- Adverse events, Intensity: Moderate, % of patients [3, 7]: 14.1%
- Adverse events, Intensity: Severe, % of patients [3, 7]: 2.6%
- Adverse events, Drug Relationship: Related, % of patients [3, 8]: 15%
- Adverse events, Intensity: Moderate, % of patients [3, 8]: 14%
- Adverse events, Intensity: Severe, % of patients [3, 8]: 3%
- Pre-Treatment Signs and Symptoms (PTSS), % of patients ([3]; 200 mg bid group (N = 78)): 10.3%
- Pre-Treatment Signs and Symptoms (PTSS), freq (events) ([3]; 200 mg bid group (N = 78)): 9
- Pre-Treatment Signs and Symptoms (PTSS), n (patients) ([3]; 200 mg bid group (N = 78)): 8
- share of the 10 severe TEAEs ([3]; 200 mg group): 20%
- subjects with GI side effects (diarrhea in most cases) ([3]; 200 mg group): approximately 8%
- subjects who discontinued the phase 2a trial due to AEs or SAEs ([3]; 200 mg group): 2 subjects
- patients discontinued because of AEs ([3]; 400 mg bd, safety population): 8 patients
- patients discontinued because of serious AE ([3]; 400 mg bd, safety population): 3 patients
- AEs Leading To Discontinuation of Study IMP, % of patients [3, 9]: 18.1%
- AEs Leading To Discontinuation of Study IMP, freq (events) [3, 9]: 20
- AEs Leading To Discontinuation of Study IMP, n (patients) [3, 9]: 15
- Adverse events, Drug Relationship: Not Related, % of patients [3, 9]: 57.8%
- Adverse events, Drug Relationship: Not Related, freq (events) [3, 9]: 150
- Adverse events, Drug Relationship: Not Related, n (patients) [3, 9]: 48
- Adverse events, Drug Relationship: Related, freq (events) [3, 9]: 23
- Adverse events, Drug Relationship: Related, n (patients) [3, 9]: 13
- Adverse events, Intensity: Mild, freq (events) [3, 9]: 119
- Adverse events, Intensity: Mild, n (patients) [3, 9]: 46
- Adverse events, Intensity: Moderate, freq (events) [3, 9]: 49
- Adverse events, Intensity: Moderate, n (patients) [3, 9]: 24
- Adverse events, Intensity: Severe, freq (events) [3, 9]: 5
- Adverse events, Intensity: Severe, n (patients) [3, 9]: 5
- All Adverse Events, % of patients [3, 9]: 66.3%
- All Adverse Events, freq (events) [3, 9]: 185
- All Adverse Events, n (patients) [3, 9]: 55
- Serious AEs, % of patients [3, 9]: 8.4%
- Serious AEs, freq (events) [3, 9]: 7
- Serious AEs, n (patients) [3, 9]: 7
- Treatment Emergent Adverse Events (TEAEs), % of patients [3, 9]: 65.1%
- Treatment Emergent Adverse Events (TEAEs), freq (events) [3, 9]: 173
- Treatment Emergent Adverse Events (TEAEs), n (patients) [3, 9]: 54
- Adverse events, Drug Relationship: Related, % of patients [3, 10]: 15.7%
- Adverse events, Intensity: Moderate, % of patients [3, 10]: 28.9%
- Adverse events, Intensity: Severe, % of patients [3, 10]: 6.0%
- Adverse events, Drug Relationship: Related, % of patients [3, 11]: 15%
- Adverse events, Intensity: Moderate, % of patients [3, 11]: 29%
- Pre-Treatment Signs and Symptoms (PTSS), % of patients ([3]; 400 mg bid group (N = 83)): 9.6%
- Pre-Treatment Signs and Symptoms (PTSS), freq (events) ([3]; 400 mg bid group (N = 83)): 12
- Pre-Treatment Signs and Symptoms (PTSS), n (patients) ([3]; 400 mg bid group (N = 83)): 8
- share of the 10 severe TEAEs ([3]; 400 mg group): 50%
- subjects with GI side effects (diarrhea in most cases) ([3]; 400 mg group): approximately 35%
- subjects who discontinued the phase 2a trial due to AEs or SAEs ([3]; 400 mg group): 11 subjects
- subjects receiving treatment with eosinophilia reported as an adverse event ([3]; 200 and 400 mg groups together): 10 subjects
- adverse events, drug groups compared with placebo ([3]; AEs otherwise similar between placebo and drug groups): higher rates in the drug group of nasopharyngitis, GI symptoms including diarrhea and transient, asymptomatic blood eosinophilia
- course of the increase in eosinophil level [3]: declined to normal levels
- course of the increase in eosinophil level ([3]; listed as salt of Formula (II)): transient
- life-threatening (Grade 4) adverse events ([3]; any group, 26 weeks): no life-threatening (Grade 4) adverse events
- heart rate and body temperature ([3]; during the visits): no clinically significant changes
- rate of several adverse events, 400 mg versus 200 mg ([3]; for some events statistically significant): higher for the 400 mg group
- MRI-based safety analysis ([3]; in vivo): no drug related adverse outcomes including hemorrhage or edema; also recorded: no events that raised any concern about the drug safety
- safety laboratory and urine analysis ([3]; in vivo): did not show any patterns of concern
- overall safety and tolerability ([3]; 26 weeks): no results raised any concerns about the safety
- overall safety and tolerability ([3]; 26 weeks, listed as salt of Formula (II)): no serious adverse events occurred that raised concerns about the tolerability of the drug
- 12-lead ECG ([3]; safety population): no relevant changes; also recorded: No significant changes
- blood pressure ([3]; safety population): no relevant changes; also recorded: No significant changes
- vital signs ([3]; safety population): no relevant changes; also recorded: No significant changes
- highest eosinophil level reached ([3]; treatment group): ≤ 5000 per μl
- subjects with eosinophil counts transiently above 500 per μl ([3]; verum group): 73 subjects
- subjects with increased eosinophil value considered clinically significant ([3]; week 4): 11 subjects
- CSF p-tau, drug versus placebo [4]: trend for the drug to inhibit the trend to rise in p-tau
- estimated human brain levels of drug [5]: in a range found to engage target mechanisms and derive therapeutic benefit in mouse models
